The numbers were not newly measured in patent publication US10689462B2, “Therapeutic and imaging compositions and uses thereof” (priority 2013, dated 2020), which cites them from elsewhere.

Data set [1] has as its system npc1^−/− mice. As to conditions: subcutaneous injection, 4.0 mg/kg of body weight.
The conditions of data set [2]: within 24 h.
For data set [3] the following is noted: room temperature.

In the case of hydroxypropyl-β-cyclodextrin [HP-β-CD], in data set [1], the “Effect on survival, hepatopathology and neuropathology” value is “improvement in their survival, hepatopathology, and neuropathology”. In data set [2], the “Fraction cleared from the bloodstream” value is given as above 90%. The Solubility in water in data set [3] is 650 mg/mL.
